In ChEMBL document CHEMBL1135873, “Neuroprotection against ischemic brain injury conferred by a novel nitrate ester” (Bioorg Med Chem Lett, 2002):

Organism: Rattus norvegicus
Assay: Effective concentration for relaxation of isolated rat aortic strips, submaximally contracted with phenylephrine at 0.1 uM was determined
Type: functional
Details: Aorta

In the case of `O=[N+]([O-])OCC(CO[N+](=O)[O-])O[N+](=O)[O-]` [NITROGLYCERIN], the EC50 is reported as 1900 nM.
